molecular target: T1, human GlyT1c transporter (Homo sapiens, UniProt P48067); assay: Radioligand binding assay using recombinant CHO cell membranes expressing human GlyT1; conditions: radioligand binding to human GlyT1c transporter-expressing membranes
T1 construct: expressed in transfected cells; host or cells: CHO cells (recombinant; line hGlyT1c_5_CHO is named for the uptake assay)
T1 sequence (P48067 1-706): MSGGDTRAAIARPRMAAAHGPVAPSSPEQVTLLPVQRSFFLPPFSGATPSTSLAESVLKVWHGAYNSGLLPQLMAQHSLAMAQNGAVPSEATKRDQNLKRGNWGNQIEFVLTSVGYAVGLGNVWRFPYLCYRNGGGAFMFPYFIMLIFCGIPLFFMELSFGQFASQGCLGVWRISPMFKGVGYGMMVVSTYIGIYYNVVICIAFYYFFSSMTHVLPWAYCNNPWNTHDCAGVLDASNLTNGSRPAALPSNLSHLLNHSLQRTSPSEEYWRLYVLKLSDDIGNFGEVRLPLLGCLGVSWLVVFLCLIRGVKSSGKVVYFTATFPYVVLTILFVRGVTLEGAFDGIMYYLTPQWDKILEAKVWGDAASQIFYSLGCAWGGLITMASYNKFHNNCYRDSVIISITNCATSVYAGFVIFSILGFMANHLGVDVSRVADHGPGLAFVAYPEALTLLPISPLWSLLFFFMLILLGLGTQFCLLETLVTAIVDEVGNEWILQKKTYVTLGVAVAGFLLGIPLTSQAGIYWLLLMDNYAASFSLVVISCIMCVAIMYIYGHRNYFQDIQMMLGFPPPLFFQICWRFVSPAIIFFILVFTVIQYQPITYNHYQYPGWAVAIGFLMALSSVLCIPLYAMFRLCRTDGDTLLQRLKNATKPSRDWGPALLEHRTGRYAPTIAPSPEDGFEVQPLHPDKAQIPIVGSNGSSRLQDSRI
Excerpt: 2. Radioligand binding assays using recombinant CHO cell membranes expressing human GlyT1: […]

SMILES	Ki [nM]
Cc1nc(S(=O)(=O)N2C[C@H](Nc3ccc(F)c(F)c3)[C@@H](c3ccc(F)cc3)C2)cn1C [Example 755, (3R,4S)-N-(3,4-difluorophenyl)-1-[(1,2-dimethyl-1H-imidazol-4-yl)sulfonyl]-4-(4-fluorophenyl)pyrrolidin-3-amine]	≥ 10000
O=C(N[C@@H]1CN(S(=O)(=O)CC2CC2)C[C@H]1c1ccccc1)c1cccc(C(F)(F)F)c1Cl (relative stereo) [Example 130, 2-chloro-N-{trans-1-[(cyclopropylmethyl)sulfonyl]-4-phenylpyrrolidin-3-yl}-3-(trifluoromethyl)benzamide]	> 10000
Cc1c(C#N)cccc1N[C@@H]1CN(S(=O)(=O)c2cn(C)cn2)C[C@H]1c1ccccc1 (relative stereo) [Example 83, 2-methyl-3-({trans-1-[(1-methyl-1H-imidazol-4-yl)sulfonyl]-4-phenylpyrrolidin-3-yl}amino)benzonitrile]	≤ 1000
N#Cc1ccccc1S(=O)(=O)N1C[C@@H](N)[C@H](c2ccccc2)C1 (relative stereo) [Example 527, 2-(Trans-3-amino-4-phenylpyrrolidin-1-ylsulfonyl)benzonitrile]	≤ 10000
Cn1cnc(S(=O)(=O)N2C[C@@H](COc3cccc(Cl)c3)[C@H](c3ccc(F)cc3)C2)c1 (relative stereo) [Example 248, 4-{[trans-3-[(3-chlorophenoxy)methyl]-4-(4-fluorophenyl)pyrrolidin-1-yl]sulfonyl}-1-methyl-1H-imidazole]	≤ 1000
Cn1cnc(S(=O)(=O)N2C[C@@H](Nc3ccc(Cl)c(F)c3)[C@H](c3ccc(F)cc3)C2)c1 (relative stereo) [Example 162, trans-N-(4-chloro-3-fluorophenyl)-4-(4-fluorophenyl)-1-[(1-methyl-1H-imidazol-4-yl)sulfonyl]pyrrolidin-3-amine]	≤ 1000
Cn1cnc(S(=O)(=O)N2C[C@@H](Nc3cccc(C(F)(F)F)c3)[C@H](c3cccc(F)c3)C2)c1 (relative stereo) [Example 189, trans-4-(3-fluorophenyl)-1-[(1-methyl-1H-imidazol-4-yl)sulfonyl]-N-[3-(trifluoromethyl)phenyl]pyrrolidin-3-amine]	≤ 100
CC(CN[C@H]1CN(S(=O)(=O)c2cn(C)cn2)C[C@@H]1c1ccccc1)C(F)(F)F (stereo partly drawn) [Example 566, (3R,4S)-1-[(1-methyl-1H-imidazol-4-yl)sulfonyl]-4-phenyl-N-(3,3,3-trifluoro-2-methylpropyl)pyrrolidin-3-amine]	≤ 10000
CC(=O)Nc1ncc(S(=O)(=O)N2CC(Nc3ccc(F)c(F)c3)C(c3ccccc3)C2)s1 (centres unmarked) [Example 499, N-[5-({3-[(3,4-difluorophenyl)amino]-4-phenylpyrrolidin-1-yl}sulfonyl)-1,3-thiazol-2-yl]acetamide]	≥ 10000
Cn1cnc(S(=O)(=O)N2CC(Cc3ccccc3Br)C(c3ccccc3Br)C2)c1 (centres unmarked) [Example 205, 4-{[3-(2-bromobenzyl)-4-(2-bromophenyl)pyrrolidin-1-yl]sulfonyl}-1-methyl-1H-imidazole]	≤ 1000
COc1ccc(N[C@H]2CN(S(=O)(=O)c3cn(C)cn3)C[C@@H]2c2ccccc2)cc1C(F)(F)F [Example 653, (3R,4S)-N-[4-methoxy-3-(trifluoromethyl)phenyl]-1-[(1-methyl-1H-imidazol-4-yl)sulfonyl]-4-phenylpyrrolidin-3-amine]	≤ 10000
Cn1cnc(S(=O)(=O)N2C[C@H](Nc3cccc(OCC(F)(F)F)c3)[C@@H](c3ccccc3)C2)c1 [Example 670, (3R,4S)-1-[(1-methyl-1H-imidazol-4-yl)sulfonyl]-4-phenyl-N-[3-(2,2,2-trifluoroethoxy)phenyl]pyrrolidin-3-amine]	≤ 10
Cn1cnc(S(=O)(=O)N2CC(Oc3ccccc3)C(c3ccccc3)C2)c1 (centres unmarked) [Example 277, 1-methyl-4-[(3-phenoxy-4-phenylpyrrolidin-1-yl)sulfonyl]-1H-imidazole]	≤ 10000
Cn1cnc(S(=O)(=O)N2C[C@@H](C(=O)c3ccccc3)[C@H](c3ccc(F)cc3)C2)c1 (relative stereo) [Example 271, {trans-4-(4-fluorophenyl)-1-[(1-methyl-1H-imidazol-4-yl)sulfonyl]pyrrolidin-3-yl}(phenyl)methanone]	≤ 1000
C=C(C)CO[C@@H]1CN(S(=O)(=O)c2cn(C)cn2)C[C@H]1Nc1cccc(Cl)c1 (relative stereo) [Example 403, Trans-N-(3-chlorophenyl)-1-[(1-methyl-1H-imidazol-4-yl)sulfonyl]-4-[(2-methylprop-2-en-1-yl)oxy]pyrrolidin-3-amine]	≤ 100
CC(C)CN[C@H]1CN(S(=O)(=O)c2cn(C)cn2)C[C@@H]1c1ccccc1 [Example 439, (3R,4S)-1-[(1-methyl-1H-imidazol-4-yl)sulfonyl]-N-(2-methylpropyl)-4-phenylpyrrolidin-3-amine]	≤ 1000
Cn1cnc(S(=O)(=O)N2C[C@@H](Nc3ccc4ccncc4c3)[C@H](c3ccccc3)C2)c1 (relative stereo) [Example 241, N-{trans-1-[(1-methyl-1H-imidazol-4-yl)sulfonyl]-4-phenylpyrrolidin-3-yl}isoquinolin-7-amine]	≤ 10000
Cn1cnc(S(=O)(=O)N2C[C@@H](Nc3cncc(C(F)(F)F)c3)[C@H](c3cccc(F)c3)C2)c1 (relative stereo) [Example 196, N-{trans-4-(3-fluorophenyl)-1-[(1-methyl-1H-imidazol-4-yl)sulfonyl]pyrrolidin-3-yl}-5-(trifluoromethyl)pyridin-3-amine]	≤ 10000
Cn1cnc(S(=O)(=O)N2C[C@H](NCc3nc4c(s3)CCCC4)[C@@H](c3ccccc3)C2)c1 [Example 456, (3R,4S)-1-[(1-methyl-1H-imidazol-4-yl)sulfonyl]-4-phenyl-N-(4,5,6,7-tetrahydro-1,3-benzothiazol-2-ylmethyl)pyrrolidin-3-amine]	≤ 1000
CCCC(CCN[C@H]1CN(S(=O)(=O)c2cn(C)cn2)C[C@@H]1c1ccccc1)OC (stereo partly drawn) [Example 674, (3R,4S)-N-(3-methoxyhexyl)-1-[(1-methyl-1H-imidazol-4-yl)sulfonyl]-4-phenylpyrrolidin-3-amine]	≤ 1000
CC(C)CO[C@@H]1CN(S(=O)(=O)c2cn(C)cn2)C[C@H]1Nc1cccc(Cl)c1 (relative stereo) [Example 412, Trans-N-(3-chlorophenyl)-1-[(1-methyl-1H-imidazol-4-yl)sulfonyl]-4-(2-methylpropoxy)pyrrolidin-3-amine]	≤ 1000
CCCC1CC1CN[C@H]1CN(S(=O)(=O)c2cn(C)cn2)C[C@@H]1c1ccccc1 (stereo partly drawn) [Example 650, (3R,4S)-1-[(1-methyl-1H-imidazol-4-yl)sulfonyl]-4-phenyl-N-[(2-propylcyclopropyl)methyl]pyrrolidin-3-amine]	≤ 1000
Cn1cnc(S(=O)(=O)N2C[C@H](NC(=O)Nc3ccccc3)[C@@H](c3ccc(F)cc3)C2)c1 [Example 692, 1-{(3R,4S)-4-(4-fluorophenyl)-1-[(1-methyl-1H-imidazol-4-yl)sulfonyl]pyrrolidin-3-yl}-3-phenylurea]	≤ 1000
Cn1cnc(S(=O)(=O)N2C[C@@H](Nc3ccnc(C(F)(F)F)c3)[C@H](c3ccccc3F)C2)c1 (relative stereo) [Example 204, N-{trans-4-(2-fluorophenyl)-1-[(1-methyl-1H-imidazol-4-yl)sulfonyl]pyrrolidin-3-yl}-2-(trifluoromethyl)pyridin-4-amine]	≤ 100
CCCCCN[C@@H]1CN(S(=O)(=O)c2cn(C)cn2)C[C@H]1c1ncccc1F (relative stereo) [Example 765, Trans-4-(3-fluoropyridin-2-yl)-1-[(1-methyl-1H-imidazol-4-yl)sulfonyl]-N-pentylpyrrolidin-3-amine]	≤ 1000
Cn1cnc(S(=O)(=O)N2C[C@H](NCC3CNC(C(F)(F)F)CN3)[C@@H](c3ccccc3)C2)c1 (stereo partly drawn) [Example 423, (3R,4S)-1-[(1-methyl-1H-imidazol-4-yl)sulfonyl]-4-phenyl-N-{[5-(trifluoromethyl)piperazin-2-yl]methyl}pyrrolidin-3-amine]	≤ 10000
Cn1cnc(S(=O)(=O)N2C[C@H](NCCCCC3OCCC(C)(C)O3)[C@@H](c3ccc(F)cc3)C2)c1 (stereo partly drawn) [Example 684, (3R,4S)-N-[4-(4,4-dimethyl-1,3-dioxan-2-yl)butyl]-4-(4-fluorophenyl)-1-[(1-methyl-1H-imidazol-4-yl)sulfonyl]pyrrolidin-3-amine]	≤ 1000
Cn1cnc(S(=O)(=O)N2C[C@H](Nc3ccc(F)cc3)[C@@H](c3ccc(F)cc3)C2)c1 [Example 330, (3R,4S)-N,4-bis(4-fluorophenyl)-1-[(1-methyl-1H-imidazol-4-yl)sulfonyl]pyrrolidin-3-amine]	≤ 100
Cn1cnc(S(=O)(=O)N2C[C@@H](Nc3cc(C(F)(F)F)cnn3)[C@H](c3ccc(F)cc3)C2)c1 (relative stereo) [Example 383, N-{trans-4-(4-fluorophenyl)-1-[(1-methyl-1H-imidazol-4-yl)sulfonyl]pyrrolidin-3-yl} -5 - (trifluoromethyl)pyridazin-3-amine]	≤ 1000
